Test results published in PMC8976068, “Structural basis to repurpose boron-based proteasome inhibitors Bortezomib and Ixazomib as β-lactamase inhibitors” (Scientific Reports, 2022).
Read-outs that look alike come from different tables or passages of the source.

Columns and labels:
CTX-M-14 β-lactamase [1] = target: T1, CTX-M-14 β-lactamase (Klebsiella pneumoniae, UniProt A0A2S1JJX2); test: crystal structure ([…] Å, soaking); also purified enzyme inhibition assay, cefotaxime hydrolysis; format: biochemical
T1 sequence (A0A2S1JJX2 entry or part of it): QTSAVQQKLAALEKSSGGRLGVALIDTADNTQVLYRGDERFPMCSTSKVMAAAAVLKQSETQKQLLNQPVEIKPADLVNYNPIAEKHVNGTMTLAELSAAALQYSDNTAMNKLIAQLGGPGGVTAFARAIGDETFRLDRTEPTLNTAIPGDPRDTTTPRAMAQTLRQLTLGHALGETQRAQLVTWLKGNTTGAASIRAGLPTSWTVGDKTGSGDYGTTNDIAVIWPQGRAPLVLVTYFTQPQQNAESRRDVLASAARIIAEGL

CTX-M-14 β-lactamase [2] = target: T1, CTX-M-14 β-lactamase; test: as above; format: biochemical; remark: listed apart in the source

| IC50 (CTX-M-14 β-lactamase [2]) [µM] | Compound | IC50 (CTX-M-14 β-lactamase [1]) [µM] |
| --- | --- | --- |
| – | CC(C)C[C@H](NC(=O)CNC(=O)c1cc(Cl)ccc1Cl)B(O)O [Ixazomib] | 13 ± 1.2 |
| 67 ± 1.4 | CC(C)C[C@H](NC(=O)[C@H](Cc1ccccc1)NC(=O)c1cnccn1)B(O)O [Bortezomib] | – |
